Experiments:
[1] = target: T1, Cholecystokinin receptor type A (Homo sapiens, UniProt P32238); format: cell membranes, Membrane; details: 1321-n1; further: in other assays of this panel Not Active means under 50% inhibition at 10 µM
T1 sequence (P32238 whole entry): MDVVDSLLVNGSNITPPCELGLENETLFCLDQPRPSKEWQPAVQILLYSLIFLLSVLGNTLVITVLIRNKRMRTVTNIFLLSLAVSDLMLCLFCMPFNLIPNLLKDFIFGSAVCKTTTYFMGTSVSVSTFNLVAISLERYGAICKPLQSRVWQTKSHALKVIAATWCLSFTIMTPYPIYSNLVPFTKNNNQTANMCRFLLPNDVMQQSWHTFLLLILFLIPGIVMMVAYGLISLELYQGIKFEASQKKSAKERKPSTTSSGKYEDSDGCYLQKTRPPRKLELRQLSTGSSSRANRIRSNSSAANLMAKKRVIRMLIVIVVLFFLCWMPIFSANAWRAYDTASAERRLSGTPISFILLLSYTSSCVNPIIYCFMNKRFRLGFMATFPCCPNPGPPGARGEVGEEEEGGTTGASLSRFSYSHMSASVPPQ

[2] = DRUGMATRIX: Tumor Necrosis Factor (TNF), Non-Selective radioligand binding (ligand: [125I] TNF-alpha); format: cell membranes, Membrane; details: u-937; Not Active = under 50% inhibition at 10 µM
Adenosine receptor A1 = target: T2, Adenosine receptor A1 (Homo sapiens, UniProt P30542); format: cell membranes, CHO, Membrane; details: cho;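 further: radioligand binding assay at the adenosine A1 receptor, with DPCPX serving as the labelled ligand; in other assays of this panel Not Active means under 50% inhibition at 10 µM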
T2 sequence (P30542 whole entry): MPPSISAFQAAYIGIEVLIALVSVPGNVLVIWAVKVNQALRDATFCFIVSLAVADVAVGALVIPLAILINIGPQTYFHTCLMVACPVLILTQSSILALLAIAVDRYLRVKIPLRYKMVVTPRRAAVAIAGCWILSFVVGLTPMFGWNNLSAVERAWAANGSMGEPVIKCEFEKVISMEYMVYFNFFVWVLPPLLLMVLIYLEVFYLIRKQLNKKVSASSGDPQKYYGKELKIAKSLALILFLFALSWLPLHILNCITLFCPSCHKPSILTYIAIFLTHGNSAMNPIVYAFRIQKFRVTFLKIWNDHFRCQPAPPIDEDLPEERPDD

[3] = target: 5-hydroxytryptamine receptor 1B (Rattus norvegicus, UniProt P28564); format: cell membranes, Wistar, Cerebral cortex, Membrane; further: in other assays of this panel Not Active means under 50% inhibition at 10 µM
[4] = DRUGMATRIX: Phosphodiesterase PDE4 enzyme inhibition (substrate: [3H]cAMP + cAMP); details: u-937; Not Active = under 50% inhibition at 10 µM
Cannabinoid receptor 1 = Cannabinoid receptor 1 (Homo sapiens, UniProt P21554); format: cell membranes, Chem-1, Membrane; details: chem-1; further: in other assays of this panel Not Active means under 50% inhibition at 10 µM
Chain of Cannabinoid receptor 1 (P21554 whole entry): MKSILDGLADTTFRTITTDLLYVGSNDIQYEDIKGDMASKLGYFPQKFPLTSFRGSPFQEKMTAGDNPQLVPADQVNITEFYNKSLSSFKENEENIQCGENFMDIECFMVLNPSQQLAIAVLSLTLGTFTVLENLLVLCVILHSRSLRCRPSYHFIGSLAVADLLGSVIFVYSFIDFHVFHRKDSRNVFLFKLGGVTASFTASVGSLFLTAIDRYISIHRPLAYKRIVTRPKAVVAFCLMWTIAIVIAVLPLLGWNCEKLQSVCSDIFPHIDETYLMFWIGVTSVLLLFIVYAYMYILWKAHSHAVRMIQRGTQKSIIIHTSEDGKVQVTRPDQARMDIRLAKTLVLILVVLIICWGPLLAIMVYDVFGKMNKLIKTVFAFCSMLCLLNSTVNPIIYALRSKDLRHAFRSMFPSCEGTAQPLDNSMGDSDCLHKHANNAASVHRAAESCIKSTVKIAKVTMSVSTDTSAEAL

Chain of 5-hydroxytryptamine receptor 1B (P28564 whole entry): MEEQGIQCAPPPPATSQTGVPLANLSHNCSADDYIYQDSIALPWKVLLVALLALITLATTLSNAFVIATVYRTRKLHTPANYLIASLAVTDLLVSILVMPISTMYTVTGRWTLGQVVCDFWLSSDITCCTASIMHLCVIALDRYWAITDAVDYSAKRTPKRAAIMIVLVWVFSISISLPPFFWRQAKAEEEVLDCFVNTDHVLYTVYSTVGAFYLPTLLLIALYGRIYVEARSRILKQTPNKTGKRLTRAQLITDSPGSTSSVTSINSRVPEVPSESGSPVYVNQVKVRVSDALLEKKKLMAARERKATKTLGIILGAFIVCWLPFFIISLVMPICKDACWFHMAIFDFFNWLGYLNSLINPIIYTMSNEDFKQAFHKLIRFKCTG

C[C@@H]1O[C@@H](O[C@@H]2C=C3CC[C@@H]4[C@H](CC[C@]5(C)[C@@H](c6ccc(=O)oc6)CC[C@]45O)[C@@]3(C)CC2)[C@H](O)[C@H](O)[C@H]1O [PROSCILLARIDIN]
Not Active: IC50 [1] | IC50 [2] | Ki [2] | IC50 (Adenosine receptor A1) | IC50 [3] | IC50 [4] | Ki [4] | IC50 (Cannabinoid receptor 1)

Oc1cccc(O)c1O [PYROGALLOL]
Not Active: IC50 [1] | IC50 [2] | Ki [2] | IC50 (Adenosine receptor A1) | IC50 [3] | IC50 [4] | Ki [4] | IC50 (Cannabinoid receptor 1)

AURANOFIN
Not Active: IC50 [1] | Ki [1] | IC50 [2] | Ki [2] | IC50 (Adenosine receptor A1) | Ki (Adenosine receptor A1) | IC50 [3] | Ki [3] | IC50 [4] | Ki [4] | IC50 (Cannabinoid receptor 1) | Ki (Cannabinoid receptor 1)

GADOPENTETATE DIMEGLUMINE
Not Active: IC50 [1] | Ki [1] | IC50 [2] | Ki [2] | IC50 (Adenosine receptor A1) | Ki (Adenosine receptor A1) | IC50 [3] | Ki [3] | IC50 [4] | Ki [4] | IC50 (Cannabinoid receptor 1) | Ki (Cannabinoid receptor 1)

GENTAMICIN
Not Active: IC50 [1] | Ki [1] | IC50 [2] | Ki [2] | IC50 (Adenosine receptor A1) | Ki (Adenosine receptor A1) | IC50 [3] | Ki [3] | IC50 [4] | Ki [4] | IC50 (Cannabinoid receptor 1) | Ki (Cannabinoid receptor 1)

GRAMICIDIN
Not Active: IC50 [1] | Ki [1] | IC50 [2] | Ki [2] | IC50 (Adenosine receptor A1) | Ki (Adenosine receptor A1) | IC50 [3] | Ki [3] | IC50 [4] | Ki [4] | IC50 (Cannabinoid receptor 1) | Ki (Cannabinoid receptor 1)

NYSTATIN
Not Active: IC50 [1] | Ki [1] | IC50 [2] | Ki [2] | IC50 (Adenosine receptor A1) | Ki (Adenosine receptor A1) | IC50 [3] | Ki [3] | IC50 [4] | Ki [4] | IC50 (Cannabinoid receptor 1) | Ki (Cannabinoid receptor 1)
